In PubChem BioAssay AID256 (DTP/NCI, 2004):
Inconclusive results and toxic doses are left out. How the source made its calls: active means survival T/C of 150% or more; inactive means T/C below 125% in these data.

Test system: CD2F1 mice, L1210 leukemia ip, survival T/C
Assay: NCI In Vivo Anticancer Drug Screen. Data for tumor model L1210 Leukemia (intraperitoneal) in CD2F1 (CDF1) mice
Conditions: higher = longer survival
Outline: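 Transplantable tumor in mice; compound-treated vs vehicle-treated groups. Read-out = treated/control ratio of the measured endpoint.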

[1] = endpoint: mean survival time, dose: 100.0 mg/kg/injection, schedule: Q01DX001 (ip), vehicle: saline
[2] = endpoint: mean survival time, dose: 200.0 mg/kg/injection, schedule: Q01DX001 (ip), vehicle: saline
[3] = endpoint: mean survival time, dose: 400.0 mg/kg/injection, schedule: Q01DX001 (ip), vehicle: saline
[4] = endpoint: mean survival time, dose: 100.0 mg/kg/injection, schedule: Q01DX001 (ip), vehicle: saline with Tween-80
[5] = endpoint: mean survival time, dose: 200.0 mg/kg/injection, schedule: Q01DX001 (ip), vehicle: saline with Tween-80
[6] = endpoint: mean survival time, dose: 400.0 mg/kg/injection, schedule: Q01DX001 (ip), vehicle: saline with Tween-80
[7] = endpoint: mean survival time, dose: 100.0 mg/kg/injection, schedule: Q01DX009 (ip), vehicle: saline with Tween-80
[8] = endpoint: mean survival time, dose: 200.0 mg/kg/injection, schedule: Q01DX009 (ip), vehicle: saline with Tween-80
[9] = endpoint: mean survival time, dose: 100.0 mg/kg/injection, schedule: Q04DX002 (ip), vehicle: saline with Tween-80
[10] = endpoint: mean survival time, dose: 200.0 mg/kg/injection, schedule: Q04DX002 (ip), vehicle: saline with Tween-80
[11] = endpoint: mean survival time, dose: 400.0 mg/kg/injection, schedule: Q04DX002 (ip), vehicle: saline with Tween-80
[12] = endpoint: mean survival time, dose: 100.0 mg/kg/injection, schedule: Q04DX003 (ip), vehicle: saline with Tween-80
[13] = endpoint: mean survival time, dose: 200.0 mg/kg/injection, schedule: Q04DX003 (ip), vehicle: saline with Tween-80
[14] = endpoint: mean survival time, dose: 400.0 mg/kg/injection, schedule: Q04DX003 (ip), vehicle: saline with Tween-80
[15] = endpoint: mean survival time, dose: 50.0 mg/kg/injection, schedule: Q01DX009 (ip), vehicle: saline with Tween-80

Measured: T/C

O=c1cc(-c2ccc3c(c2)OCO3)oc2ccccc12
inactive: endpoint: mean survival time, dose: 50.0 mg/kg/injection, schedule: Q01DX001 (ip), vehicle: saline 102 % of control | [1] 98 % of control | [2] 98 % of control | [3] 92 % of control

COc1cc2c(cc1OC)C(CCN)NCC2 (configuration not stated)
inactive: [4] 97 % of control | [5] 100 % of control | [6] 94 % of control

OC1CCCCCCCCCCC12OCCO2 (configuration not stated)
inactive: endpoint: mean survival time, dose: 100.0 mg/kg/injection, schedule: Q04DX002 (ip), vehicle: other 98 % of control | endpoint: mean survival time, dose: 200.0 mg/kg/injection, schedule: Q04DX002 (ip), vehicle: other 113 % of control | endpoint: mean survival time, dose: 400.0 mg/kg/injection, schedule: Q04DX002 (ip), vehicle: other 95 % of control

CCOC(=O)CC(=O)c1ccc(C)cc1
inactive: [7] 96 % of control | [8] 105 % of control | endpoint: mean survival time, dose: 400.0 mg/kg/injection, schedule: Q01DX009 (ip), vehicle: saline with Tween-80 89 % of control

NC(=O)COc1ccc(F)cc1
inactive: [9] 97 % of control | [10] 90 % of control | [11] 101 % of control

Cc1cccc(Cl)c1NC(=O)CCCl
inactive: [12] 97 % of control | [13] 106 % of control | [14] 98 % of control

O=CC(C=O)[N+](=O)[O-]
inactive: [1] 103 % of control | [2] 103 % of control | [3] 97 % of control

CCOC(=O)N1C=Cc2ccccc2C1/C(N)=N/O (configuration not stated)
inactive: [4] 98 % of control | endpoint: mean survival time, dose: 100.0 mg/kg/injection, schedule: Q01DX009 (ip), vehicle: Klucel (hydroxypropylcellulose) (HPC) 96 % of control | [5] 95 % of control | endpoint: mean survival time, dose: 200.0 mg/kg/injection, schedule: Q01DX009 (ip), vehicle: Klucel (hydroxypropylcellulose) (HPC) 91 % of control | [6] 94 % of control | endpoint: mean survival time, dose: 400.0 mg/kg/injection, schedule: Q01DX009 (ip), vehicle: Klucel (hydroxypropylcellulose) (HPC) 91 % of control

CC1(Br)CCOC1=O (configuration not stated)
inactive: endpoint: mean survival time, dose: 50.0 mg/kg/injection, schedule: Q04DX002 (ip), vehicle: saline with Tween-80 98 % of control | [9] 98 % of control | [10] 111 % of control

COc1ccc(CNCCCCCCNCc2ccc(OC)cc2)cc1
inactive: [15] 100 % of control | [7] 95 % of control | [12] 101 % of control | [13] 87 % of control

O=C1C2CCCC1C1/C(=[N+](/[O-])O)C=C([N+](=O)[O-])C2C1[N+](=O)[O-] (configuration not stated)
inactive: [9] 98 % of control | [10] 98 % of control | [11] 110 % of control

c1ccc2c(c1)CN(C1CCCCC1)CO2
inactive: [15] 98 % of control | [7] 97 % of control | [8] 97 % of control

Cc1cc2c(=O)[nH]cnc2[nH]1
inactive: endpoint: median survival time, dose: 12.5 mg/kg/injection, schedule: Q01DX005 (ip), vehicle: saline with Tween-80 102 % of control | endpoint: median survival time, dose: 25.0 mg/kg/injection, schedule: Q01DX005 (ip), vehicle: saline with Tween-80 100 % of control | endpoint: median survival time, dose: 50.0 mg/kg/injection, schedule: Q01DX005 (ip), vehicle: saline with Tween-80 101 % of control | endpoint: median survival time, dose: 50.0 mg/kg/injection, schedule: Q01DX005 (ip), vehicle: saline 102 % of control | endpoint: median survival time, dose: 100.0 mg/kg/injection, schedule: Q01DX005 (ip), vehicle: saline 90 % of control

CCOS(=O)(=O)CCCCS(=O)(=O)OCC
inactive: endpoint: mean survival time, dose: 10.0 mg/kg/injection, schedule: Q01DX009 (ip), vehicle: Klucel (hydroxypropylcellulose) (HPC) 104 % of control | endpoint: mean survival time, dose: 20.0 mg/kg/injection, schedule: Q01DX009 (ip), vehicle: Klucel (hydroxypropylcellulose) (HPC) 98 % of control | endpoint: mean survival time, dose: 40.0 mg/kg/injection, schedule: Q01DX009 (ip), vehicle: Klucel (hydroxypropylcellulose) (HPC) 107 % of control

CN1c2ccccc2N(C)c2ccccc21
inactive: [7] 94 % of control | [12] 101 % of control | [13] 98 % of control | [14] 96 % of control

OCCCC(Sc1ccccc1)c1ccccc1 (configuration not stated)
inactive: endpoint: mean survival time, dose: 75.0 mg/kg/injection, schedule: Q04DX003 (ip), vehicle: saline 91 % of control | endpoint: mean survival time, dose: 150.0 mg/kg/injection, schedule: Q04DX003 (ip), vehicle: saline 101 % of control | endpoint: mean survival time, dose: 300.0 mg/kg/injection, schedule: Q04DX003 (ip), vehicle: saline 91 % of control

CC1COCC(C)N1N=Nc1ccccc1-c1nc(N)c2ccccc2n1 (configuration not stated)
inactive: endpoint: mean survival time, dose: 100.0 mg/kg/injection, schedule: Q04DX002 (ip), vehicle: Klucel (hydroxypropylcellulose) (HPC) 88 % of control | endpoint: mean survival time, dose: 200.0 mg/kg/injection, schedule: Q04DX002 (ip), vehicle: Klucel (hydroxypropylcellulose) (HPC) 92 % of control | endpoint: mean survival time, dose: 400.0 mg/kg/injection, schedule: Q04DX002 (ip), vehicle: Klucel (hydroxypropylcellulose) (HPC) 98 % of control

Cc1ccc(S(=O)(=O)N2C(=O)OC3(CCCCC3)C2C)cc1 (configuration not stated)
inactive: [4] 100 % of control | [5] 95 % of control | [6] 92 % of control
